Laboratory results reported in publication PMC10347550, “Cyclic Ruthenium-Peptide Conjugates as Integrin-Targeting Phototherapeutic Prodrugs for the Treatment of Brain Tumors” (Journal of the American Chemical Society, 2023).
Where two headings read alike, the source gives them in different places.

Legend:
U87MG spheroids = experiment: 3D tumor spheroid viability assay, CellTiter-Glo 3D; assay type: cell-based, human; conditions: U87MG 3D spheroids, CellTiter-Glo 3D at 96 h, n = 3
Protocol: The spheroids were incubated further under normoxia. […] After 30 min of shaking on an IKA Vibrax shaker at 500 rpm at room temperature, the luminescence in each well was measured with a Tecan microplate reader. […] All experiments were conducted in three biologically independent replicates.

A549 cells = experiment: 2D cytotoxicity assay, 24 h DLI & no wash, SRB endpoint; assay type: cell-based, human; conditions: A549 2D monolayer, not washed, n = 3
Protocol: (§1) For each complex, two identical plates were prepared, one of which was irradiated with light, while the other was used as a dark control. […] Finally, at t = 96 h, 100 μL of cold trichloroacetic acid (10% w/v) was added to each well to fix the cells, and all plates were then transferred to a 4 °C refrigerator for 48 h before performing an SRB cell quantification endpoint assay.[72] Trichloroacetic acid was first removed and each plate was gently washed with demi water 3–5 times. Then, each well was dried in the air, and 100 μL of 0.6% SRB solution (0.6% w/v in 1% v/v acetic acid/H2O solution) was added into each well where it was allowed to stain for 30 min. Then, the plates were washed 3–5 times using an acetic acid solution (1% v/v). Once the plate was washed it was allowed to dry overnight. Then, 200 μL of 10 mM Tris base buffer was added to each well and the plate was allowed to sit on an orbital shaker for 0.5–16 h. After mixing, the absorbance of each well was determined by an M1000 Tecan Reader, reading at 510 nm. All experiments were conducted in independent biological triplicate. The obtained data were analyzed with Graphpad Prism 5 using the dose–response two-parameter Hill slope equation (eq 1) to obtain the half-maximal effective concentrations EC50 (defined as the concentration of drug that kills 50% of cells, compared to the untreated control). [drawing 1] 1

U87MG cells [1] = experiment: as above; assay type: cell-based, human; conditions: U87MG 2D monolayer, not washed, SRB at 96 h, n = 3
Protocol: as §1

PC-3 cells = experiment: as above; assay type: cell-based, human; conditions: PC-3 2D monolayer, not washed, SRB at 96 h, n = 3
Protocol: as §1

U87MG cells [2] = experiment: Apopxin/Nuclear Green DCS1 double-staining cell death mode study; assay type: cell-based, human; conditions: 20 μM, 24 h incubation, 1 h after green light (13.1 J/cm^2), flow cytometry
Protocol: After 24 h of incubation, one plate labeled light was irradiated for 20 min using 520 nm green light (13.1 J/cm^2), and then both plates were allowed to incubate further for 1, 2, 6, or 24 h in a normoxia incubator. After incubation, the cells were trypsinized, collected, and washed with cold PBS twice. […] Cells after staining were detected by flow cytometry (CytoFLEX flow cytometer) immediately. Control groups with only assay buffer, only buffer and Apopxin Deep Red Indicator, only buffer and Nuclear Green DCS1, and all three were included to be used for gating during data analysis. Parameters APC (638 nm excitation, 660/10 nm emission) and FITC (488 nm excitation, 525/40 nm emission) were used considering their similar excitation/emission wavelength with two detectors Apopxin Deep Red Indicator, Ex/Em = 630/660 nm (apoptosis), and Nuclear Green DCS1, Ex/Em = 490/520 nm (necrosis).

U87MG cells [3] = experiment: Intracellular ROS generation, CellROX Deep Red, flow cytometry; conditions: 15 µM, 24 h
Protocol: The generation of ROS (reactive oxygen species) in U87MG cells was measured using a ROS deep red fluorescence indicator (Abcam, ab186029). U87MG (1 × 10^5, 1 mL) were seeded into 12-well plates and incubated for 24 h in the dark under normoxia. The cells were then treated with 15 μM complexes with Opti-MEM, Λ-[1]Cl2, Δ-[1]Cl2, cisplatin, or Rose Bengal. There are two groups for each drug (dark + light). After 24 h of incubation under normoxia, the plate was washed with cold PBS once, and cells were trypsinized, harvested, and then resuspended in 150 μL of PBS. The cell suspension from the centrifuge tubes was transferred to 96-round-bottom well plates (Thermo Scientific, 268200), and the light group was irradiated for 20 min with 520 nm light (dose = 13.1 J/cm^2). After which, the Cellular ROS Deep Red dye (abcam, ab186029) was added with 1000× dilution, and cells were further stained for 1 h. Untreated cells were maintained as negative controls, whereas a 250 μM tBHP solution in Opti-MEM complete was administered as a positive control for ROS. The levels of intracellular ROS were then determined using the CytoFLEX flow cytometer. Forward versus side scatter (FSC vs SSC) gating was used to select the population of interest and avoid cell debris. A forward scatter height (FSC-H) vs forward scatter area (FSC-A) gating was used for doublet exclusion. Fluorescence measurements were acquired with the APC-A (638 nm excitation, 660/10 nm emission) channel given the known excitation/emission wavelengths of the ROS Deep Red dye (650/675 nm, respectively). All flow cytometry data were processed using FlowLogic 8.5 software.

[4] = Octanol-water partition coefficient (log P); assay type: physicochemical; conditions: shake-flask, octanol-saturated water / water-saturated octanol, shaken 24 h in the dark, room temperature; Ru in water phase by ICP-MS; ± SD from 4 concentration points
Protocol: Each complex was first dissolved in octanol-saturated water (0.5 mM, 500 μL) and centrifuged (2000 rpm, 5 min) to isolate the undissolved solid. 450 μL of the supernatant was taken out as the stock solution; after that, 5, 10, 50, 100, and 150 μL of solution were added to the 15 mL tube, and more octanol-saturated water was added to adjust the final volume to 1 mL. 1 mL of water-saturated octanol was added further, and the tubes were mildly shaken (Gesellschaft für Labortechnik mbH, type3016) for 24 h under dark conditions. After that, the solutions were centrifuged for 5 min at 2000 rpm at room temperature, and 0.5 mL of the water phase (below phase) was moved to a 15 mL centrifuge tube by an Eppendorf pipette. Then, 0.1 mL of 65% HNO3 was added into the tube using an organic pipette gun, and each solution was shaken for 1 h. 9.9 mL of MilliQ water was added into each tube, making a total volume of 10 mL. To detect the Ru content of the stock solution, 10 μL of each stock solution was mixed with 0.490 mL of 65% HNO3, and the mixture was shaken for 1 h. Then, […] of MilliQ water was added to the tube, making a total volume of 10 mL. ICP-MS measurement was performed using a NexION 2000 from PerkinElmer. The ruthenium content in each well was obtained in ppb. The partition coefficients (log P) were calculated using the following eq 3 [drawing 3] 3
where [complex]total is the concentration of the complex in the control sample (where no water-saturated octanol was added) and [complex]water is the concentration of the complex in the aqueous layer.

[5] = system: ITGAV knockdown U87MG cells (U87MG-kd); experiment: Cellular Ru uptake by ICP-MS, 2 h; assay type: cell-based, human; conditions: 10 μM, dark, normoxia, n = 3
Protocol: (§2) The uptake studies in U87MG and U87MG-kd cell lines were conducted as follows: 2 × 10^5 cells were cultured in 6-well plates for 24 h in Opti-MEM (2 mL), after which cells were incubated with Δ-[1]Cl2 or Δ-[3]Cl2 (10 μM) for 2 h, washed with cold PBS twice, harvested, concentrated in 200 μL of PBS, and counted using trypan blue and a cell counter (Bio-Rad). Finally, cell pellets were collected in 1.5 mL Eppendorf tubes after removing additional PBS by centrifuging at 500g; 0.25 mL of 65% HNO3 was then added to each tube, and all tubes were kept at room temperature (RT) overnight. The cell lysates were transferred to 15 mL centrifuge tubes (Biologix) and filled with 4.75 mL of MilliQ H2O.
(§3) The ruthenium concentration was measured in each sample by ICP-MS (NexION 2000, PerkinElmer), providing the metal content in each well in ppb. Combining the cell numbers and Ru uptake, averaging over technical triplicates, the ruthenium uptake values were finally expressed in μg Ru/million cells.

[6] = system: wild-type U87MG cells (U87MG-wt); experiment: Cellular Ru uptake by ICP-MS, 2 h; assay type: cell-based, human; conditions: 10 μM, dark, normoxia, n = 3
Protocol: as §2, §3

integrin αIIbβ3 = biological target: T1, integrin αIIbβ3 (Homo sapiens, UniProt P05106+P08514); conditions: literature values; read-out: Kd for the same integrin heterodimers (αIIbβ3); cited from earlier work
T1 construct: Purified human platelet glycoprotein integrin αIIbβ3; purchased Enzyme Research Laboratories GP2b3a; host or cells: human platelets (natural source)
Protocol: Since the ruthenium complexes were designed to target integrins, their interaction with the protein should be a key process for recognition, uptake, and toxicity. To check whether the ruthenium-coordinated peptide still retained the interaction binding affinity with the targeted integrin, the association constant (Ka) of both isomers of [1]Cl2 to integrin αIIbβ3 was measured using luminescence spectroscopy. In this assay, the emission intensity from aromatic residues (tryptophan, tyrosine, and phenylalanine) in integrin αIIbβ3 (λemi = 345 nm) was monitored upon the addition of different concen ...

[7] = 21% O2, dark, 24 h treatment, read-out: EC50,dark
[8] = 1% O2, dark, 24 h treatment, read-out: EC50,dark
[9] = 1% O2, 520 nm, 7.22 mW/cm^2, 13.1 J/cm^2, 30 min, read-out: EC50,light
[10] = 21% O2, 520 nm, 10.9 mW/cm^2, 13.1 J/cm^2, 20 min, read-out: EC50,light

Molecule: N.N.[Cl][Pt][Cl] [cisplatin, reference compound]
- EC50 (U87MG spheroids; [7]): 8.6 µM
- EC50 (U87MG spheroids; 21% O2, green light after 24 h treatment, read-out: EC50,light): 7.9 µM
- EC50 (A549 cells; 1% O2, dark, 24 h treatment, SRB at 96 h, read-out: EC50,dark): 6.5 µM
- EC50 (A549 cells; 1% O2, 520 nm, 7.22 mW/cm^2, 13.1 J/cm^2, 30 min, SRB at 96 h, read-out: EC50,light): 6.3 µM
- EC50 (A549 cells; 21% O2, dark, 24 h treatment, SRB at t = 96 h, read-out: EC50,dark): 2.3 µM
- EC50 (A549 cells; 21% O2, 24 h treatment, 520 nm, 10.9 mW/cm^2, 13.1 J/cm^2, 20 min, SRB at 96 h, read-out: EC50,light): 2.4 µM
- EC50 (U87MG cells [1]; [8]): 13 µM
- EC50 (U87MG cells [1]; [9]): 12.5 µM
- EC50 (U87MG cells [1]; [7]): 2.8 µM
- EC50 (U87MG cells [1]; [10]): 4 µM
- EC50 (PC-3 cells; [8]): 23.1 µM
- EC50 (PC-3 cells; [9]): 25.8 µM
- EC50 (PC-3 cells; [7]): 4.5 µM
- EC50 (PC-3 cells; [10]): 4.1 µM
- cell death mode (U87MG cells [2]): mainly died via apoptosis
- Ratio of L/D (light/dark ROS ratio) (U87MG cells [3]): 0.81

Molecule: [Ru(Ph2phen)2(κ^S,κ^N-Ac-MRADH-NH2)]Cl2 (sidechain bridge or staple) [Δ-[3]Cl2, Gly-Ala analogue of [1]Cl2]
- log P (octanol-water partition coefficient) [4]: 0.02 ± 0.05
- uptake amount compared to U87MG-wt cells [5]: taken up in similar amounts
- cellular uptake compared to Δ-[1]Cl2 [6]: significantly lower

Molecule: fibrinogen
- Kd (integrin αIIbβ3): 0.03 µM
